Source: patent publication US11413260B2, “Use of 1,3-propanedisulfonic acid or pharmaceutically acceptable salts thereof for the treatment of sarcoidosis” (Icahn School of Medicine at Mount Sinai, priority 2014, dated 2022)

Experiments:
[1] = test system: SAA-induced production of IL-10 by THP-1 cells; test: SAA-stimulated inflammation in THP-1 cells: IL-10 production; assay type: cell-based; settings: THP-1 cells treated with PMA and SAA
Excerpt: (§1) FIG. 1 summarizes the protocol employed to evaluate the effect of 1,3-propanedisulfonic acid (or a pharmaceutically acceptable salt thereof) on SAA (serum amyloid A) stimulated inflammation in THP-1 cells.
(§2) THP-1 cells were subjected to PMA (phorbol 12-myristate 13-acetate (EMD Cat. #524400)), SAA (serum amyloid A (PeroTech Cat. #300-13)), and 1,3-propanedisulfonic acid (KIACTA C933 (NRA610-01-CF)). The SAA treated cells were used as a positive control, with the SAA increasing the inflammatory mediators, TNF, IL-18 and IL-10. 1,3-propanedisulfonic acid is added to the cell cultures and the effect on TNF, IL-18 and IL-10 levels is measured.

[2] = test system: SAA-induced production of IL-18 by THP-1 cells; test: SAA-stimulated inflammation in THP-1 cells: IL-18 production; assay type: cell-based; settings: THP-1 cells treated with PMA and SAA
Excerpt: as §1, §2

sarcoidosis = test: Treatment of a patient diagnosed with sarcoidosis; assay type: in vivo
Procedure: A patient is diagnosed with sarcoidosis, and 1,3-propane disulfonic acid is administered to the patient.

[3] = test system: SAA-induced production of IL-TNF by THP-1 cells; test: SAA-stimulated inflammation in THP-1 cells: TNF production; assay type: cell-based; settings: THP-1 cells treated with PMA and SAA
Excerpt: as §1, §2

O=S(=O)(O)CCCS(=O)(=O)O [1,3-propanedisulfonic acid]
concentration that inhibits SAA-induced production of IL-10 [1]: ≥ 2.5 mg/mL
concentration that inhibits SAA-induced production of IL-18 [2]: ≥ 5 mg/mL
effect on sarcoidosis symptoms (sarcoidosis): reduction and/or alleviation of sarcoidosis symptoms
concentration that inhibits SAA-induced production of IL-TNF [3]: ≥ 1.25 mg/mL
